Laboratory results taken from the Deep4Chem optical property database.
Each block holds one compound with its values, some of them ahead of it.

Test: photoluminescence quantum yield (fraction); solvent given as SMILES

Compound: c1ccc(N2c3ccc4ccccc4c3-c3c4ccccc4nc[n+]3[B-]2(c2ccccc2)c2ccccc2)cc1
photoluminescence quantum yield (in C1CCC2CCCCC2C1): 0.07
photoluminescence quantum yield (in C1CCCCC1): 0.06
photoluminescence quantum yield (in CCCCCC): 0.06
photoluminescence quantum yield (in CCOC(C)=O): 0.02
photoluminescence quantum yield (in Cc1ccccc1): 0.03
photoluminescence quantum yield (in ClC(Cl)Cl): 0.01

Compound: COc1ccc(-c2csc(/C(C#N)=C\Nc3ccc(C#N)cc3)n2)cc1
photoluminescence quantum yield (in CC#N): 0.001
photoluminescence quantum yield (in CCO): 0.001
photoluminescence quantum yield (in CN(C)C=O): 0.003
photoluminescence quantum yield (in Cc1ccccc1): 0.003
photoluminescence quantum yield (in ClCCl): 0.001

Compound: CC(C)[Si](C#Cc1ccc(C#C[Si](C(C)C)(C(C)C)C(C)C)c2nc3ccccc3nc12)(C(C)C)C(C)C
photoluminescence quantum yield (in ClCCl): 0.02

Compound: CCn1c2cc(OC)ccc2c2c3nsnc3c3c4ccc(OC)cc4n(CC)c3c21
photoluminescence quantum yield (in CN(C)C=O): 0.49
photoluminescence quantum yield (in Cc1ccccc1): 0.41
photoluminescence quantum yield (in ClCCl): 0.44

Compound: CC1=CC(C)=[N+]2C1=C(C1=C(C)C3=C(C)c4c(C)cc(C)n4[B-](F)(F)[N+]3=C1C)c1c(C)cc(C)n1[B-]2(F)F
photoluminescence quantum yield (in ClC(Cl)Cl): 0.03

Compound: N#Cc1cc(C#N)c(-c2cc(-n3c4ccccc4c4ccccc43)cc(-n3c4ccccc4c4ccccc43)c2)cc1-c1cc(-n2c3ccccc3c3ccccc32)cc(-n2c3ccccc3c3ccccc32)c1
photoluminescence quantum yield (in C1CCCCC1): 0.11

Compound: CCOC(=O)C1=CN(Cc2ccccc2)C=C(C(=O)OCC)C1
photoluminescence quantum yield (in C1CCOC1): 0.31
photoluminescence quantum yield (in CO): 0.24

Compound: Cc1ccc(C2=C3C=CC(Cl)=[N+]3[B-](F)(F)n3c(Cl)ccc32)cc1
photoluminescence quantum yield (in C1CCCCC1): 0.33
photoluminescence quantum yield (in C1CCOC1): 0.3
photoluminescence quantum yield (in CC#N): 0.29
photoluminescence quantum yield (in CCOC(C)=O): 0.32
photoluminescence quantum yield (in CO): 0.27
photoluminescence quantum yield (in Cc1ccccc1): 0.59
photoluminescence quantum yield (in ClC(Cl)Cl): 0.63

Compound: CN(C)c1ccc(C#Cc2cc(C#Cc3ccc(N(C)C)cc3)c3ccc4c(C#Cc5ccc(N(C)C)cc5)cc(C#Cc5ccc(N(C)C)cc5)c5ccc2c3c54)cc1
photoluminescence quantum yield (in ClCCl): 0.6

Compound: N#Cc1c(-n2c3ccccc3c3ccccc32)c(F)c(-n2c3ccccc3c3ccccc32)c(-n2c3ccccc3c3ccccc32)c1-n1c2ccccc2c2ccccc21
photoluminescence quantum yield (in Cc1ccccc1): 0.81
photoluminescence quantum yield (in c1ccc([Si](c2ccccc2)(c2ccc(-n3c4ccccc4c4ccccc43)cc2)c2ccc(-n3c4ccccc4c4ccccc43)cc2)cc1): 1

Compound: CCOC(CN1C(=O)C2=C(c3ccsc3)N(CC(OCC)OCC)C(=O)C2=C1c1ccsc1)OCC
photoluminescence quantum yield (in ClC(Cl)Cl): 0.9

Compound: COC(=O)C(Cc1ccc2oc(-c3ccc(N(C)c4ccccc4)cc3)nc2c1)NC(=O)OC(C)(C)C (stereo unspecified)
photoluminescence quantum yield (in C1CCCCC1): 0.998
photoluminescence quantum yield (in C1CCOC1): 0.27
photoluminescence quantum yield (in C1COCCO1): 0.73
photoluminescence quantum yield (in CC1CCCO1): 0.52
photoluminescence quantum yield (in CC1COC(=O)O1): 0.11
photoluminescence quantum yield (in CC#N): 0.11
photoluminescence quantum yield (in CC(C)=O): 0.19
photoluminescence quantum yield (in CC(C)CC(C)(C)C): 1
photoluminescence quantum yield (in CC(C)CO): 0.2
photoluminescence quantum yield (in CC(C)O): 0.19
photoluminescence quantum yield (in CC(O)CO): 0.11
photoluminescence quantum yield (in CCC(C)CC): 0.97
photoluminescence quantum yield (in CCCCC): 1
photoluminescence quantum yield (in CCCCCC): 1
photoluminescence quantum yield (in CCCCCCCCC): 0.95
photoluminescence quantum yield (in CCCCCCCCCC): 1
photoluminescence quantum yield (in CCCCCCCO): 0.21
photoluminescence quantum yield (in CCCCCCO): 0.22
photoluminescence quantum yield (in CCCCCO): 0.28
photoluminescence quantum yield (in CCCCO): 0.18
photoluminescence quantum yield (in CCO): 0.07
photoluminescence quantum yield (in CCOC(C)=O): 0.39
photoluminescence quantum yield (in CCOCC): 0.6
photoluminescence quantum yield (in CN(C)C=O): 0.16
photoluminescence quantum yield (in CO): 0.03
photoluminescence quantum yield (in COCCOC): 0.07
photoluminescence quantum yield (in CS(C)=O): 0.15
photoluminescence quantum yield (in Cc1ccccc1): 0.78
photoluminescence quantum yield (in Cc1ccccc1C): 0.84
photoluminescence quantum yield (in ClC(Cl)Cl): 0.58
photoluminescence quantum yield (in ClCCl): 0.45
photoluminescence quantum yield (in NC=O): 0.02
photoluminescence quantum yield (in OC1CCCCC1): 0.18
photoluminescence quantum yield (in OCCO): 0.03
photoluminescence quantum yield (in c1ccccc1): 0.76

Compound: c1ccc2nc(-n3c4ccccc4c4ccccc43)c(-n3c4ccccc4c4ccccc43)nc2c1
photoluminescence quantum yield (in Cc1ccccc1): 0.13

Compound: CCCCc1c2c(nc3ccccc13)-c1cc3c(cc1CC2)-c1nc2ccccc2c(CCCC)c1CC3
photoluminescence quantum yield (in ClC(Cl)Cl): 0.697

Compound: COC(=O)c1ccc2ccc3cccc4ccc1c2c34
photoluminescence quantum yield (in C1CCOC1): 0.68
photoluminescence quantum yield (in CC#N): 0.79
photoluminescence quantum yield (in CCCCCC): 0.63
photoluminescence quantum yield (in CCO): 0.81
photoluminescence quantum yield (in CN(C)C=O): 0.74
photoluminescence quantum yield (in CO): 0.69
photoluminescence quantum yield (in Cc1ccccc1): 0.76
photoluminescence quantum yield (in ClCCl): 0.56

Compound: CCCC1(CCC)c2cc(-c3ccc(-c4ccccc4)cc3)ccc2-c2ccc(-c3ccc4c(c3)C(CCC)(CCC)c3cc(-c5ccc(-c6ccccc6)cc5)ccc3-4)cc21
photoluminescence quantum yield (in Cc1ccccc1): 0.92

Compound: COc1ccc2cc(/C=C/C3=[O+][B-](F)(F)OC(/C=C/c4ccc5cc(OC)ccc5c4)=C3c3ccccc3)ccc2c1
photoluminescence quantum yield (in ClCCl): 0.51

Compound: CCCCCCCCCCCn1cccc1C1=[N+]2C(=Cc3c(C)cc(C)n3[B-]2(F)F)c2ccccc21
photoluminescence quantum yield (in C1CCOC1): 0.98
photoluminescence quantum yield (in CC#N): 0.99
photoluminescence quantum yield (in CCCCCC): 0.99
photoluminescence quantum yield (in CO): 0.96
photoluminescence quantum yield (in Cc1ccccc1): 0.99
photoluminescence quantum yield (in ClCCl): 0.99

Compound: Oc1ccccc1-c1nc2c3ccccc3c3ccccc3c2n1-c1ccccc1
photoluminescence quantum yield (in Cc1ccccc1): 0.001

Compound: CCn1c2c(-c3ccc(-c4cccs4)s3)cc(C(C)(C)C)cc2c2cc(C(C)(C)C)cc(-c3ccc(-c4cccs4)s3)c21
photoluminescence quantum yield (in ClCCl): 0.106

Compound: COc1cccc(C2=CC3=C(c4c(C)cc(C)cc4C)c4cc(-c5cccc(OC)c5)c(-c5cccc(OC)c5)n4[B-](F)(F)[N+]3=C2c2cccc(OC)c2)c1
photoluminescence quantum yield (in C1CCCCC1): 0.86
photoluminescence quantum yield (in C1CCOC1): 0.76
photoluminescence quantum yield (in CC#N): 0.65
photoluminescence quantum yield (in Cc1ccccc1): 0.78
photoluminescence quantum yield (in ClCCl): 0.83

Compound: COc1cc2c(cc1/C=C(\C#N)c1nc3ccccc3s1)c1ccccc1n2C
photoluminescence quantum yield (in C1CCOC1): 0.002
photoluminescence quantum yield (in CC#N): 0.001
photoluminescence quantum yield (in CCOC(C)=O): 0.003
photoluminescence quantum yield (in CN(C)C=O): 0.003
photoluminescence quantum yield (in CO): 0.001
photoluminescence quantum yield (in CS(C)=O): 0.004
photoluminescence quantum yield (in Cc1ccccc1): 0.003
photoluminescence quantum yield (in ClC(Cl)Cl): 0.003
photoluminescence quantum yield (in ClCCl): 0.003

Compound: CNC1=C2C=CC=[N+]2[B-](F)(F)n2cccc21
photoluminescence quantum yield (in C1CCCCC1): 0.7
photoluminescence quantum yield (in CC(C)=O): 0.16
photoluminescence quantum yield (in CCO): 0.16
photoluminescence quantum yield (in CCOC(C)=O): 0.42
photoluminescence quantum yield (in CO): 0.1
photoluminescence quantum yield (in OCC(F)(F)F): 0.23

Compound: Cc1ccc(N2C(c3ccccc3[N-]S(=O)(=O)c3ccc(C)cc3)=[NH+]C(c3ccccc3)C2c2ccccc2)cc1 (stereo unspecified)
photoluminescence quantum yield (in Cc1ccccc1): 0.396

Compound: CCCCCCN1C(=O)c2cccc3c(-c4scc5c4OCCO5)ccc(c23)C1=O
photoluminescence quantum yield (in ClC(Cl)Cl): 0.61

Next, values leading:

photoluminescence quantum yield (in CC#N): 0.3
photoluminescence quantum yield (in CCOC(C)=O): 0.48
photoluminescence quantum yield (in CN(C)C=O): 0.2
photoluminescence quantum yield (in CS(C)=O): 0.23
photoluminescence quantum yield (in c1ccccc1): 0.5
Compound: CCOC(=O)CN(CC(=O)OCC)c1ccc(-c2cc(-c3ccncc3)nc(-c3ccncc3)c2)cc1

photoluminescence quantum yield (in ClCCl): 0.89
Compound: O=S1(=O)c2ccc(-c3ccc(N(c4ccccc4)c4ccccc4)cc3)cc2C2(c3ccccc3-c3ccccc32)c2cc(-c3ccc(N(c4ccccc4)c4ccccc4)cc3)ccc21

photoluminescence quantum yield (in C1CCOC1): 0
Compound: CCCCCCc1ccsc1-c1ccc2c(c1)C1=[N+]3C2=Cc2c4ccc(-c5sccc5CCCCCC)cc4c4n2[B-]3(Oc2ccccc21)Oc1ccccc1-4 (stereo unspecified)

photoluminescence quantum yield (in C1CCOC1): 0.41
photoluminescence quantum yield (in ClCCl): 0.82
Compound: COc1ccc(C2=Cc3ccccc3P2(=O)c2ccccc2)cc1 (stereo unspecified)

photoluminescence quantum yield (in ClCCl): 0.49
Compound: COc1cccc(OC)c1-c1c2ccc(=[N+]3CCN(C(=O)OC(C)(C)C)CC3)cc-2oc2cc(N3CCN(C(=O)OC(C)(C)C)CC3)ccc12

photoluminescence quantum yield (in ClC(Cl)Cl): 0.11
Compound: Cc1ccc2c3ccc(C)cc3c3cc4c(C)cc(=O)oc4cc3c2c1

photoluminescence quantum yield (in CS(C)=O): 0.07
Compound: CCN1/C(=C/C=C/C2=[N+](C)c3ccccc3C2(C)C)C(C)(C)c2ccccc21

photoluminescence quantum yield (in C1COCCO1): 0.04
photoluminescence quantum yield (in CC#N): 0.05
photoluminescence quantum yield (in CCCCCCC): 0.02
photoluminescence quantum yield (in CCO): 0.01
Compound: c1ccc2nc3c(nc2c1)[nH]c1ccccc13

photoluminescence quantum yield (in CO): 0.04
Compound: Brc1cnc(-c2ccc(N(c3ccccc3)c3ccccc3)cc2)s1

photoluminescence quantum yield (in CCO): 0.839
Compound: Cc1c(COC(=O)c2ccccc2)n2c(OCC(=O)c3ccccc3)c(C)c(=O)n2c1=O

photoluminescence quantum yield (in C1CCOC1): 0.53
photoluminescence quantum yield (in CC#N): 0.47
photoluminescence quantum yield (in CCO): 0.45
photoluminescence quantum yield (in CO): 0.44
photoluminescence quantum yield (in ClCCl): 0.5
Compound: O=C1C2=C(O[B-](F)(F)[n+]3c2ccc2ccccc23)c2cccc3c(N4CCOCC4)ccc1c23

photoluminescence quantum yield (in ClCCl): 0.86
Compound: c1ccc(C2=C(c3ccccc3)c3cccc4c3c(cc3nc5cc(-c6ccccc6)c(-c6ccccc6)cc5nc34)O2)cc1

photoluminescence quantum yield (in C1CCCCC1): 0.79
Compound: Cc1cc(C)c(B2c3cc(C(C)(C)C)cc4ccc5ccc6cc(C(C)(C)C)cc2c6c5c34)c(C)c1

photoluminescence quantum yield (in CO): 0.002
Compound: N#Cc1c(-n2nnc3ccccc32)n([C@H]2C[C@H](O)[C@@H](CO)O2)c2ncnc(N)c12

photoluminescence quantum yield (in ClCCl): 0.022
Compound: CCCCN1C(=O)c2ccc3c4ccc5c6c(cc(-c7ccc(C(=C(c8ccccc8)c8ccccc8)c8ccccc8)cc7)c(c7ccc(c2c37)C1=O)c64)C(=O)N(CCCC)C5=O

photoluminescence quantum yield (in CCO): 0.0198
photoluminescence quantum yield (in ClCCl): 0.016
Compound: N#CC(C#N)=Cc1ccc(-c2ccc(O)c(-c3nc4ccccc4s3)c2)s1

photoluminescence quantum yield (in ClCCl): 0.27
Compound: Cc1ccc2nc3cc4c(cc3c(-c3ccccc3)c2c1)[Si](C)(C)O[Si]4(C)C

photoluminescence quantum yield (in CC#N): 0.71
Compound: N#Cc1nn(-c2ccccc2C(F)(F)F)nc1N1CCCC1

photoluminescence quantum yield (in CCO): 0.26
Compound: CCOC(=O)c1cc(C(=O)OCC)c2c(C)ccc(O)c2n1

photoluminescence quantum yield (in C1CCCCC1): 0.14
Compound: c1ccccc1

photoluminescence quantum yield (in ClC(Cl)Cl): 0.28
Compound: CCCCCCN1C(=O)c2cccc3c(-c4cc5ccccc5s4)ccc(c23)C1=O
